These results are taken from patent US20020086865A1, “Use of growth hormone secretagogues for stimulating or increasing appetite” (priority 2000, published 2002).

In one assay the test system is free-feeding rats. To be noted: intracerebroventricular administration; cited from earlier work.
The conditions of assay [1]: orally active; cited from earlier work.
For a further assay, the system named is satiated rats. To be noted: s.c.; cited from earlier work.
The test system of assay [2] is healthy, young male subjects. The conditions noted are these: 100 mg single oral dose in a solution of water, fasted state; four subjects on active.
Procedure: The test compound or placebo was administered orally in a solution of water to the subjects in a fasted state. The doses evaluated were 0.3, 1, 3, 10, 30 and 100 mg of the test compound or placebo. Each participant was studied at only one dose level.
A further assay has as its system rats. The conditions noted are these: intracerebroventricular; cited from earlier work.
The subject of assay [3] is young women with anorexia nervosa. To be noted: cited from earlier work.

Square brackets hold non-standard residues; d marks the D form. Peptide text beside a SMILES is read from it. dTrp(2-Me) = Cc1[nH]c2ccccc2c1C[C@@H](N)C(=O)O; d2Nal = N[C@H](Cc1ccc2ccccc2c1)C(=O)O

Regarding `C[C@H](NC(=O)[C@@H](Cc1ccc2ccccc2c1)NC(=O)[C@@H](C)N)C(=O)N[C@@H](Cc1c[nH]c2ccccc12)C(=O)N[C@H](Cc1ccccc1)C(=O)N[C@@H](CCCCN)C(N)=O` [KP-102] (H-[dA][d2Nal]AW[dF]K-NH2), the food intake entry with free-feeding rats is “increased food intake”.

As to `CC(C)(N)C(=O)N[C@H](COCc1ccccc1)C(=O)N1CCC2(CC1)CN(S(C)(=O)=O)c1ccccc12` [MK-677], the diet-induced catabolism result in assay [1] was “reverses diet-induced catabolism”.

Consider `Cc1[nH]c2ccccc2c1C[C@@H](NC(=O)[C@@H](N)Cc1cnc[nH]1)C(=O)N[C@@H](C)C(=O)N[C@@H](Cc1c[nH]c2ccccc12)C(=O)N[C@H](Cc1ccccc1)C(=O)N[C@@H](CCCCN)C(N)=O` [hexarelin] (H-H[dTrp(2-Me)]AW[dF]K-NH2), for which, in the assay on satiated rats, the GH release entry is listed as “dose dependently stimulated” and the feeding behavior entry is listed as “dose dependently stimulated”.

As to `CC(C)(N)C(=O)N[C@H](COCc1ccc(F)cc1F)C(=O)N1CCC2=NN(CC(F)(F)F)C(=O)[C@]2(Cc2ccccn2)C1.O=C(O)C(O)C(O)C(=O)O` [test compound, (L)-(+)-tartaric acid salt of 2-amino-N-(1-(R)-(2,4-difluoro-benzyloxymethyl)-2-oxo-2-(3-oxo-3a-(R)-pyridin-2-ylmethyl-2-(2,2,2-trifluoro-ethyl)-2,3,3a,4,6,7-hexahydro-pyrazolo-[4,3-c]pyridin-5-yl)-ethyl)-2-methyl-propionamide], in assay [2], the “subjects who self-reported feeling hungry (case report forms)” value is listed as “two of the four subjects”.

Turning to GHRP-6, in the assay on rats, the eating result is recorded as “stimulated eating” and the “plasma growth hormone responses” value is given as “without affecting plasma growth hormone responses”. For the same molecule, in the assay with satiated rats, the GH release result is listed as “dose dependently stimulated” and the feeding behavior result is reported as “dose dependently stimulated”.

For “recombinant growth hormone: recombinant growth hormone”, in assay [3], the IGF-1 levels entry is reported as “normalizes IGF-1 levels”, the body weight entry is given as “increases body weight” and the eating behavior result was “improves eating behavior”.
